The source of these data is US7176199B2, “Aryl-substituted alicyclic compound and medical composition comprising the same” (Dainippon Pharmaceutical Co., Ltd., priority 2001, dated 2007).

Assay [1] has as its target αvβ3 integrin (Homo sapiens, UniProt P05106+P06756). The assay is described as follows: Assay for the inhibition of αvβ3 integrin binding (vitronectin as ligand). On the set-up: purchased Chemicon International, Inc., USA. As to conditions: inhibition of specific binding of biotinylated human vitronectin to immobilized αvβ3 integrin. On the procedure:
Experiment 1: Assay for the Inhibition of αvβ3 integrin binding
This experiment was carried out based on the method described in […].
Purified human αvβ3 integrin (Chemicon International, Inc., USA) was adjusted to a concentration of 1 μg/ml with TBS^++ [20 mM Tris-HCl (pH 7.4), 150 mM NaCl, 1 mM CaCl2, 1 mM MgCl2], and the diluted solution was added to plates (Labsystems, Finland) at 50 μl/well. The plate was left at 4° C. overnight for immobilization of the αvβ3 integrin. All subsequent steps were done at 25° C., and the procedure for each well was described hereafter.
The solution was discarded, and then 200 μl of TBS^++ containing 1% BSA (Wako Pure Chemical Industries, Ltd., Japan) was added to the well and left for one hour for blocking. The well was washed with a wash solution (TBS^++ containing 0.01% Tween 20) 4 times, and 50 μl of a reaction solution (TBS^++ containing 0.1% BSA and 0.01% Tween 20) was added to the well. Subsequently, 25 μl of a test compound solution adjusted to each concentration with the reaction solution was added, and then mixed with 25 μl of biotinylated (Amersham Pharmacia Biotech, UK) human vitronectin (Gibco BRL, USA) adjusted to 0.4 μg/ml with the reaction solution. The mixture was reacted for 2 hours. After washing 4 times with the wash solution, 100 μl of peroxidase-labeled streptoavidin (Amersham Pharmacia Biotech, UK) diluted 1:500 with the reaction solution was added to the well. Following 30 minutes reaction, the well was washed 4 times with the wash solution, and 100 μl of a TMB substrate solution (Bio-Rad Laboratories, USA) was added to the well. Color was developed for 20 minutes and the reaction was stopped by adding 100 μl of 0.5 M sulfuric acid.
The absorbance at 450 nm was measured with a plate reader (Molecular Devices, USA) to obtain a total binding. To obtain a nonspecific binding, EDTA adjusted to 20 mM with the reaction solution was added instead of the test compound solution. A specific binding was calculated by subtracting the nonspecific binding from the total binding.

Assay [2] concerns the target T1, αIIbβ3 integrin (Homo sapiens, UniProt P05106+P08514).
T1 construct: from tissue; host or cells: human platelets (Triton X-100 lysate)
The assay is described as follows: Assay for the inhibition of αIIbβ3 integrin binding (fibrinogen as ligand, integrin captured from platelet lysate). As to conditions: inhibition of specific binding of biotinylated fibrinogen to αIIbβ3 integrin from human platelet lysate. On the procedure: Experiment 2: Assay for the Inhibition of αIIbβ3 Integrin Binding
This experiment was carried out based on the method described in Thromb. Haemostasis, 75, 339 (1996), Blood, 93, 2559 (1999), using fibrinogen as a ligand. According to the method described in the above literatures, assay for the inhibition of αIIbβ3 integrin binding can be achieved by capturing αIIbβ3 integrin from platelet lysate with the use of an activated antibody against αIIbβ3 integrin.
Human platelets were isolated in a conventional manner. At 25° C., the isolated platelets were adjusted to a concentration of 1.25×10^9/ml with TBS+[50 mM Tris-HCl (pH 7.4), 150 mM NaCl, 2 mM CaCl2], and then ⅛ volume of TBS^+ containing 2 mM leupepsin and 10 mM PMSF was added and stirred gently. Nest, 1/9 volume of TBS+ containing 10% Triton X-100 was added and stirred gently. After standing on ice for 30 minutes, a platelet lysate was prepared from the mixture by discarding the insoluble fraction with centrifugation (10,000 g, 15 minutes).
Anti-mouse IgG goat antibody (Jackson Immunoresearch Laboratories, Inc., USA) was adjusted to a concentration of 5 μg/ml with sodium carbonate buffer (pH 9.6) and added to plates at 50 μl/well. The plate was left at 4° C. overnight for immobilization of the antibody. All subsequent steps were done at 25° C., and the procedure for each well was described hereafter.
The well was washed once with TBS^+, and then 200 μl of TBS^+ containing 5% BSA was added to the well and left for one hour for blocking. The well was washed with a reaction solution (TBS^+ containing 0.1% BSA and 0.05% Triton X-100) 4 times, and then 50 μl of anti-human αIIbβ3 integrin activated monoclonal antibody (TAKARA SHUZO CO., LTD, Japan, PT25-2 strain) adjusted to 5 μg/ml with the reaction solution was added to the well. After one hour reaction, the well was washed 4 times with the reaction solution, and 50 μl of the platelet lysate diluted 1:2 with the reaction solution was added to the well. Following 2 hours reaction, the well was washed 4 times with the reaction solution, and 50 μl of the reaction solution was added to the well. Subsequently, 25 μl of a test compound solution adjusted to each concentration with the reaction solution was added, and then mixed with 25 μl of biotinylated fibrinogen (Calbiochem, Germany) adjusted to 2 μg/ml with the reaction solution. The mixture was reacted for one hour. After washing 4 times with the reaction solution, 100 μl of alkaline phosphatase-labeled streptoavidin (Gibco BRL, USA) diluted 1:500 with the reaction solution was added to the well. Following 30 minutes reaction, the well was washed 4 times with the wash solution. Next, 50 μl of the NaDPH solution (Invitrogen, former company name: Gibco BRL, USA) was added and reacted for 20 minutes, and then 50 μl of an amplification solution containing diaphorase and alcohol dehydrogenase (Invitrogen, former company name: Gibco BRL, USA) was added. Color was developed for 20 minutes and the reaction was stopped by adding 50 μl of 0.5 M sulfuric acid.
The absorbance at 495 nm was measured with a plate reader to obtain a total binding. To obtain a nonspecific binding, EDTA adjusted to 20 mM with the reaction solution was added instead of the test compound solution. A specific binding was calculated by subtracting the nonspecific binding from the total binding.

T1 sequence (P08514 32-887 limits assumed): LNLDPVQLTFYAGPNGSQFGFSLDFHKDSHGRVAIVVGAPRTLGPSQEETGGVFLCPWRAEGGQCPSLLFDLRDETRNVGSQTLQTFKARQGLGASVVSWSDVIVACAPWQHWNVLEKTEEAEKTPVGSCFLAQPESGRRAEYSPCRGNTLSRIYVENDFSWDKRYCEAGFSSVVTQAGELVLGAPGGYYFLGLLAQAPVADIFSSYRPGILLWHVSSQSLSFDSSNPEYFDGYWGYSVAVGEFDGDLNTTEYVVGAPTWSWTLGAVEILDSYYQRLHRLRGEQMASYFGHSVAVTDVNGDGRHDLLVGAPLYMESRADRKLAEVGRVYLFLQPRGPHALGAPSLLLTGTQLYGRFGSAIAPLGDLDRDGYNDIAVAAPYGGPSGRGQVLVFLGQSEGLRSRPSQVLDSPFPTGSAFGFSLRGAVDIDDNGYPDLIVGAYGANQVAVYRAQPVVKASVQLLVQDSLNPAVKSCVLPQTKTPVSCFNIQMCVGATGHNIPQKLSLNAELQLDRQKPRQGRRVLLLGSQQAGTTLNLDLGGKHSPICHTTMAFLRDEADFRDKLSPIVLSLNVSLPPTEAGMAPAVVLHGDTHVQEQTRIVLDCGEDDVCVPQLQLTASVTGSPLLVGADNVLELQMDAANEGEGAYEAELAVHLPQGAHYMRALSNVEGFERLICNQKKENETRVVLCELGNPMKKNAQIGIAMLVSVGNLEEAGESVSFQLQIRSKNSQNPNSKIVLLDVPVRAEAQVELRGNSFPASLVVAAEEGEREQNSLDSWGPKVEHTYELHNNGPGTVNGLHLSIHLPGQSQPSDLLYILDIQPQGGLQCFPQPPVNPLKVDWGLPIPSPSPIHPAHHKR
T1 sequence (P08514 891-1039 partner limits assumed): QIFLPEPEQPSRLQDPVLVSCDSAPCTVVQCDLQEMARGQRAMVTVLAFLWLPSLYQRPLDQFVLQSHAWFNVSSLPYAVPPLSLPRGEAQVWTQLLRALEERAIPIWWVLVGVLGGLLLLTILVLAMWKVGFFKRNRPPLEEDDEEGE
T1 sequence (P05106 27-788): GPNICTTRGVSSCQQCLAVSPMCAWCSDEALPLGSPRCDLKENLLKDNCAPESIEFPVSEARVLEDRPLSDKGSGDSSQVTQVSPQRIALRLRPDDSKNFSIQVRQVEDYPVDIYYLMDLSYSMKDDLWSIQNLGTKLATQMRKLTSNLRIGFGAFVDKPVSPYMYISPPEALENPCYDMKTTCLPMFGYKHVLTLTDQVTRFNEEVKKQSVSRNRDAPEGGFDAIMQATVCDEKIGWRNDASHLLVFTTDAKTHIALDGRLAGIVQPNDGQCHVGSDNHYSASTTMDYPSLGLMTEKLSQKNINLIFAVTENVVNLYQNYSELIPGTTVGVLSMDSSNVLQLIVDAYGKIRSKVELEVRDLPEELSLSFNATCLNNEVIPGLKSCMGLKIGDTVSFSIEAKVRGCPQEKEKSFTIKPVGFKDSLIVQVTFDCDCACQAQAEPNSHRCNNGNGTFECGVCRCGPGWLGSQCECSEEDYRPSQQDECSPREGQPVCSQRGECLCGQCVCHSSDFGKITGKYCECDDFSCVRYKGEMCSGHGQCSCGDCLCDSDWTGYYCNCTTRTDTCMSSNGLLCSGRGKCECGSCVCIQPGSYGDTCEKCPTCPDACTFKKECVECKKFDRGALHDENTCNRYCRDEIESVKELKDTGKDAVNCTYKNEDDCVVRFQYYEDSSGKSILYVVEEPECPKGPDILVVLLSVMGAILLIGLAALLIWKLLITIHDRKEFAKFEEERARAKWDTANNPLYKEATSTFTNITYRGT
Chain of αvβ3 integrin (P06756 31-889 limits assumed): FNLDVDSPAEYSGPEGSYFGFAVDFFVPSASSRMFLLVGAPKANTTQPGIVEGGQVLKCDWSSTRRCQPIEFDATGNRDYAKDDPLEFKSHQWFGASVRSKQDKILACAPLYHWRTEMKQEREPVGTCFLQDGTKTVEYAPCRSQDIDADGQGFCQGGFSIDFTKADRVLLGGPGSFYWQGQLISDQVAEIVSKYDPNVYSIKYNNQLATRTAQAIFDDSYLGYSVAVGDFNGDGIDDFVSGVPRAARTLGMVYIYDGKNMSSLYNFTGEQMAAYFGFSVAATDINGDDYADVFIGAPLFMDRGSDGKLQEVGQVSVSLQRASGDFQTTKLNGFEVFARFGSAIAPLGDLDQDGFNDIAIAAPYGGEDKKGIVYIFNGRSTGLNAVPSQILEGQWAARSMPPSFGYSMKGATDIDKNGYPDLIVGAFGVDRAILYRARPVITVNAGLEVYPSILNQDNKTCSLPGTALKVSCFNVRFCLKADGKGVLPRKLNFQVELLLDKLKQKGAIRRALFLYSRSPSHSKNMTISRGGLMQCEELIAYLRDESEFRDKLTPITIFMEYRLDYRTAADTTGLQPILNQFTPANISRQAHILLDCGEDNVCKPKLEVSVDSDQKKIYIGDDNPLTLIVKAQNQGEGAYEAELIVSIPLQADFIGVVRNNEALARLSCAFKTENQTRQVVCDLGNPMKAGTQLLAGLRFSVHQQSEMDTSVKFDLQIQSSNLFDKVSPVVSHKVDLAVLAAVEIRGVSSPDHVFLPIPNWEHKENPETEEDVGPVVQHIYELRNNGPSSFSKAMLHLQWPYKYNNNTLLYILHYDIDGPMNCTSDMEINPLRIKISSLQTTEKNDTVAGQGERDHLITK
Chain of αvβ3 integrin (P06756 891-1048 partner limits assumed): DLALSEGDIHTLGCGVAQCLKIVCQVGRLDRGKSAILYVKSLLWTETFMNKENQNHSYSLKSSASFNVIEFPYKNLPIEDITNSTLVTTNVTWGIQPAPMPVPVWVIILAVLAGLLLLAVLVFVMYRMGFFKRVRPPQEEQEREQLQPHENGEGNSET
Chain of αvβ3 integrin (P05106 27-788): as the sequence (P05106 27-788) above

For the compound `O=C(N[C@@H](CNC(=O)C1CCN(c2cc(NC3=NCCCN3)ccn2)CC1)C(=O)O)OCc1ccccc1` [Ex. 159, (2S)-2-benzyloxycarbonylamino-3-[[1-[4-(1,4,5,6-tetrahydropyrimidin-2-yl)aminopyridin-2-yl]piperidin-4-yl]carbonylamino]-propanoic acid], the figures for the IC50 in assay [1] and in assay [2] were 0.06 nM and 86 nM, respectively.
On the same counts, the results for `O=C(N[C@@H](CNC(=O)C1CCC(c2cccc(NC3=NCCCN3)c2)CC1)C(=O)O)OCc1ccccc1` (single isomer, unassigned) [Ex. 151B] are 1.9 nM and 510 nM.
As for `CCOC(=O)N[C@@H](CNC(=O)C1CCN(c2cccc(NC3=NCCCN3)c2)CC1)C(=O)O` [Ex. 86, (2S)-2-ethoxycarbonylamino-3-[[1-[3-(1,4,5,6-tetrahydropyrimidin-2-yl)aminophenyl]piperidin-4-yl]carbonylamino]propanoic acid], the half-maximal inhibitory concentration (IC50) in assay [1] was 0.094 nM; in assay [2] it was 380 nM.
On the same counts, the results for `CC(C)COC(=O)N[C@@H](CNC(=O)C1CCN(c2cc(NC3=NCCCN3)ccn2)CC1)C(=O)O` [Ex. 161] are 0.1 nM and 77 nM.
As for `CCCCCCCCCCOC(=O)N[C@@H](CCC(=O)N1CCN(c2cccc(NC3=NCC(C)(C)CN3)c2)CC1)C(=O)O` [Ex. 132], the values for the IC50 in assay [1] and in assay [2] were 1.7 nM and above 1000 nM, respectively.
The corresponding values for `C=CCOC(=O)N[C@@H](CNC(=O)C1CCN(c2cccc(NC3=NCCCN3)c2)CC1)C(=O)O` [Ex. 96, (2S)-2-allyloxycarbonylamino-3-[[1-[3-(1,4,5,6-tetrahydropyrimidin-2-yl)aminophenyl]piperidin-4-yl]carbonylamino] propanoic acid] are 0.08 nM and 60 nM.
In the case of `O=C(C[C@H](NC(=O)OCc1ccccc1)C(=O)O)NC1CCN(c2cccc(NC3=NCCCN3)c2)CC1` [Ex. 146, (2S)-2-benzyloxycarbonylamino-4-[[1-[3-(1,4,5,6-tetrahydropyrimidin-2-yl)aminophenyl]piperidin-4-yl]amino]-4-oxobutanoic acid], the results for the IC50 in assay [1] and in assay [2] were 1 nM and 4200 nM, respectively.
On the same counts, the results for `CC(C)OC(=O)N[C@@H](CNC(=O)C1CCN(c2cccc(NC3=NCCCN3)c2)CC1)C(=O)O` [Ex. 44, (2S)-2-isopropoxycarbonylamino-3-[[1-[3-(1,4,5,6-tetrahydropyrimidin-2-yl)aminophenyl]piperidin-4-yl]carbonylamino]-propanoic acid] are 0.11 nM and 800 nM.
The corresponding values for `CCCCCCCCCCOC(=O)N[C@@H](CCC(=O)N1CCN(c2cccc(NC3=NCC(F)CN3)c2)CC1)C(=O)O` (some centres unmarked) [Ex. 133] are 0.26 nM and above 1000 nM.
As to `CC(C)COC(=O)N[C@@H](CNC(=O)C1CCN(c2cccc(NC3=NCC(O)CN3)c2)CC1)C(=O)O` (stereo partly drawn) [Ex. 20, (2S)-2-Isobutoxycarbonylamino-3-[[1-[3-(5-hydroxy-1,4,5,6-tetrahydropyrimidin-2-yl)aminophenyl]piperidin-4-yl]carbonylamino]-propanoic acid], the IC50 in assay [1] came out at 0.061 nM; in assay [2], 37 nM.
On the same counts, the results for `O=C(N[C@@H](CNC(=O)C1CCN(c2cccc(NC3=NCC(F)(F)CN3)c2)CC1)C(=O)O)OCc1ccccc1` [Ex. 12, (2S)-2-benzyloxycarbonylamino-3-[[1-[3-(5,5-difluoro-1,4,5,6-tetrahydropyrimidin-2-yl)aminophenyl]piperidin-4-yl]carbonylamino]-propanoic acid] are 0.057 nM and 95 nM.
The compound `CC(C)COC(=O)N[C@@H](CCC(=O)N1CCN(c2cccc(NC3=NCCCN3)c2)CC1)C(=O)O` [Ex. 138, (2S)-2-isobutoxycarbonylamino-5-[4-[3-(1,4,5,6-tetrahydropyrimidin-2-yl)aminophenyl]piperazin-1-yl]-5-oxopentanoic acid] displayed a half-maximal inhibitory concentration (IC50) in assay [1] of 0.32 nM.
In assay [1], `CC(C)COC(=O)N[C@@H](CCC(=O)N1CCN(c2cccc(NC3=NCC(C)(C)CN3)c2)CC1)C(=O)O` [Ex. 126] gave an IC50 of 0.38 nM.
Regarding `CCCCCCNC(=O)N[C@@H](CNC(=O)C1CCN(c2cccc(NC3=NCCCN3)c2)CC1)C(=O)O` [Ex. 117, (2S)-2-hexylaminocarbonylamino-3-[[1-[3-(1,4,5,6-tetrahydropyrimidin-2-yl)aminophenyl]piperidin-4-yl]carbonylamino]propanoic acid], the 50% inhibitory concentration (IC50) turned out to be 0.35 nM in assay [1] and 88 nM in assay [2].
For the compound `O=C(Cc1ccccc1)N[C@@H](CCC(=O)N1CCN(c2cccc(NC3=NCCCN3)c2)CC1)C(=O)O` [Ex. 139], in assay [1], the half-maximal inhibitory concentration (IC50) turned out to be 6.8 nM.
In the case of `CCCCCCCCOC(=O)N[C@@H](CNC(=O)C1CCN(c2cccc(NC3=NCCCN3)c2)CC1)C(=O)O` [Ex. 89, (2S)-2-octyloxycarbonylamino-3-[[1-[3-(1,4,5,6-tetrahydropyrimidin-2-yl)aminophenyl]piperidin-4-yl]carbonylamino]propanoic acid], the concentration for half-maximal inhibition (IC50) stood at 0.1 nM in assay [1] and 96 nM in assay [2].
As for `CC(C)COC(=O)N[C@@H](CCC(=O)N1CCN(c2cccc(NC3=NCC(F)CN3)c2)CC1)C(=O)O` (stereo partly drawn) [Ex. 127, (2S)-2-Isobutoxycarbonylamino-5-[4-[3-(5-fluoro-1,4,5,6-tetrahydropyrimidin-2-yl)aminophenyl]piperazin-1-yl]-5-oxopentanoic acid], the concentration for half-maximal inhibition (IC50) in assay [1] is 0.055 nM.
The same measure, in the same setting: the value for `CCOC(=O)N[C@@H](CCC(=O)N1CCN(c2cccc(NC3=NCCCN3)c2)CC1)C(=O)O` [Ex. 136] was 0.59 nM.
In assay [1], `O=C(N[C@@H](CCC(=O)N1CCN(c2cc(NC3=NCCCN3)ccc2F)CC1)C(=O)O)OCc1ccccc1` [Ex. 155, (2S)-2-benzyloxycarbonylamino-5-[4-[2-fluoro-5-(1,4,5,6-tetrahydropyrimidin-2-yl)aminophenyl]piperazin-1-yl]-5-oxopentanoic acid] displayed a concentration for half-maximal inhibition (IC50) of 0.077 nM.
The same measure, in the same setting: the result for `CC(C)COC(=O)N[C@@H](CCC(=O)N1CCN(c2cccc(NC3=NCC(O)CN3)c2)CC1)C(=O)O` (some centres unmarked) [Ex. 128] reads 0.3 nM; that for `O=C(NCc1ccccc1)N[C@@H](CCC(=O)N1CCN(c2cccc(NC3=NCCCN3)c2)CC1)C(=O)O` [Ex. 143], 1.4 nM.
The same measure, in the same setting: the result for `CCNC(=O)N[C@@H](CCC(=O)N1CCN(c2cccc(NC3=NCCCN3)c2)CC1)C(=O)O` [Ex. 142] reads 3.6 nM.
